Where “and” joins values, the source holds several entries; their conditions need not be identical. Identical values can stand only once.
B1: Recombinant full-length RapD (natural protein, Rhizobium leguminosarum bv. viciae 3841, UniProt Q1MFT2 1-277, looked up)
chain: MTNAKPTAVDDLLVFFEDNWIRGNLLRLSSDPEGADMYVRFVNGVRIDAKHGPDHETIIRGEYGTFRLKPDGHFEYELDYTLDVVKNLTKYDQLIEKLSFKMSDGSGGTDFGVLTLAIDGVNEGDKYHENLDFDDLGVLSRADNFSLPDYRNFALSVNGSHEVTLLNGIVYDTIPGVNAITEDGFSDTVLSPGSAPVSLKMLDGGEFTFQSVSIAELSAAPFHLTLTALNDGQIVYQQELEVTGPTLEVNLEDIEEIRFDFMGNSVVMDNFSLFALL
notes: N-terminal Ra/CHDL domain (aa 1-122) and C-terminal region (aa 123-277); Cloned NdeI-NotI into pET-22b; The protein was decalcified with EGTA before calcium was added; also called Apo-RapD; RapD-Apo; source: E. coli BL21 (DE3) carrying pET22brapD, purified (Ni-NTA HiTrap Chelating, dialysis against 10 mM EGTA, Superdex 200); not shown: His tag (from the vector pET-22b)

Legend:
RapD = target: T1, RapD (Rhizobium johnstonii, UniProt Q1MFT2); test: binding inhibition assay (ELISA): RapD to immobilized EPS; details: with calcium (TBS, 1 mM CaCl2); room temperature; galactose 0-300 mM preincubated with RapD; proteinase K treated Rlv 3841 EPS immobilized; indirect competition read-out
T1 construct: gene RL2702
T1 sequence (Q1MFT2 1-277): B1 chain

[1] = target: the molecule itself; test: SEC with 90° static light scattering (SLS) and refractometer; Superdex 200, 100 ul of RapD at 1 mg/ml pre-incubated with 1.25 mM CaCl2, 20 mM Tris-HCl, 0.15 M NaCl, pH 8, 0.4 ml/min, 20°C, BSA as standard

Molecule | partial inhibition of EPS binding (RapD) | stoichiometry N [1]
OC[C@H]1OC(O)[C@H](O)[C@@H](O)[C@H]1O (some centres unmarked) [galactose] | RapD interaction with the EPS was partially inhibited in the presence of high concentrations of galactose | 
B1 |  | 3 and 2

Source: publication PMC9298526, “RapD Is a Multimeric Calcium-Binding Protein That Interacts With the Rhizobium leguminosarum Biofilm Exopolysaccharide, Influencing the Polymer Lengths” (Frontiers in Microbiology, 2022)
